Experimental data as given in ChEMBL document CHEMBL1201862, “PubChem BioAssay data set” (2004).
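These data come from cells grown in 96-well plates and exposed to compound for 48 hours at five concentrations. GI50: concentration for 50% inhibition of growth.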 The source made the active and inactive calls. Rule as the data show it: active = GI50 up to about 1.1 µM and inactive = higher.

How the values were obtained:
Assay in all cases: NCI tumour cell line growth inhibition, 48 h
[1] = tested on: KM12
[2] = tested on: HCT-15
[3] = tested on: MDA-MB-435
[4] = tested on: IGROV-1
[5] = tested on: SK-OV-3
[6] = tested on: HOP-62
[7] = tested on: MDA-N
[8] = tested on: SN12C
[9] = tested on: SK-MEL-2
[10] = tested on: ACHN
[11] = tested on: HOP-92
[12] = tested on: EKVX
[13] = tested on: MCF7
[14] = tested on: MOLT-4
[15] = tested on: A549
[16] = tested on: MDA-MB-231
[17] = tested on: PC-3
[18] = tested on: SW-620
[19] = tested on: 786-0
[20] = tested on: U-251
[21] = tested on: UACC-257
[22] = tested on: SR
[23] = tested on: RXF 393
[24] = tested on: CCRF-CEM
[25] = tested on: SK-MEL-5
[26] = tested on: HT-29
[27] = tested on: DU-145
[28] = tested on: HCT-116
[29] = tested on: OVCAR-5
[30] = tested on: CAKI-1
[31] = tested on: K562
[32] = tested on: SF-268
[33] = tested on: UACC-62
[34] = tested on: SK-MEL-28
[35] = tested on: RPMI-8226
[36] = tested on: OVCAR-8
[37] = tested on: M14
[38] = tested on: A498
[39] = tested on: Hs-578T
[40] = tested on: TK-10
[41] = tested on: SNB-75
[42] = tested on: LOX IMVI
[43] = tested on: SNB-19
[44] = tested on: HL-60
[45] = tested on: HCC 2998
[46] = tested on: SF-295
[47] = tested on: Malme-3M
[48] = tested on: T47D
[49] = tested on: NCI-H23

**Q.** What does the source list for CC1CC/C(=C\c2ccc(F)cc2)C2=C1C(c1ccc(F)cc1)n1c(s/c(=C/c3cccc(Br)c3)c1=O)=N2 (configuration not stated)?
**A.** GI50 [1]: > 100 µM (inactive); GI50 [2]: > 100 µM; GI50 [3]: > 100 µM (inactive); GI50 [4]: > 100 µM (inactive); GI50 [5]: > 100 µM (inactive); GI50 [6]: > 100 µM (inactive); GI50 [7]: > 100 µM (inactive); GI50 [8]: > 100 µM (inactive); GI50 [9]: > 100 µM (inactive); GI50 [10]: > 100 µM (inactive); GI50 [11]: > 100 µM (inactive); GI50 [12]: > 100 µM (inactive); GI50 [13]: > 100 µM (inactive); GI50 [14]: > 100 µM (inactive); GI50 [15]: > 100 µM (inactive); GI50 [16]: > 100 µM (inactive); GI50 [17]: > 100 µM (inactive); GI50 [18]: > 100 µM (inactive); GI50 [19]: > 100 µM (inactive); GI50 [20]: > 100 µM (inactive); GI50 [21]: > 100 µM (inactive); GI50 [22]: > 100 µM (inactive); GI50 [23]: > 100 µM (inactive); GI50 [24]: > 100 µM (inactive); GI50 [25]: > 100 µM (inactive); GI50 [26]: > 100 µM (inactive); GI50 [27]: > 100 µM (inactive); GI50 [28]: > 100 µM (inactive); GI50 [29]: > 100 µM (inactive); GI50 [30]: > 100 µM (inactive); GI50 [31]: > 100 µM (inactive); GI50 [32]: > 100 µM (inactive); GI50 [33]: > 100 µM (inactive); GI50 [34]: > 100 µM (inactive); GI50 [35]: > 100 µM (inactive); GI50 [36]: > 100 µM (inactive); GI50 [37]: > 100 µM (inactive); GI50 [38]: > 100 µM (inactive); GI50 [39]: > 100 µM (inactive); GI50 [40]: > 100 µM (inactive); GI50 [41]: > 100 µM (inactive); GI50 [42]: > 100 µM (inactive); GI50 [43]: > 100 µM (inactive); GI50 [44]: > 100 µM (inactive)

**Q.** With CC1OC(c2ccccc2)=CC(OCc2ccccc2)[C@H]1OCc1ccccc1 (some centres not stated) as the molecule, how does the GI50 [1] read?
**A.** > 10 µM (inactive)

**Q.** And the GI50 [2]?
**A.** > 10 µM

**Q.** What about the GI50 [4] of the same molecule?
**A.** > 10 µM (inactive)

**Q.** And the GI50 [5]?
**A.** > 10 µM (inactive)

**Q.** And the GI50 [6]?
**A.** > 10 µM (inactive)

**Q.** And the GI50 [45]?
**A.** > 10 µM (inactive)

**Q.** What about the GI50 [7] of the same molecule?
**A.** > 10 µM (inactive)

**Q.** And the GI50 [8]?
**A.** > 10 µM (inactive)

**Q.** And the GI50 [12]?
**A.** > 10 µM (inactive)

**Q.** What about the GI50 [13] of the same molecule?
**A.** > 10 µM (inactive)

**Q.** What about the GI50 [14] of the same molecule?
**A.** > 10 µM (inactive)

**Q.** And the GI50 [15]?
**A.** > 10 µM (inactive)

**Q.** What about the GI50 [16] of the same molecule?
**A.** > 10 µM (inactive)

**Q.** And the GI50 [17]?
**A.** > 10 µM (inactive)

**Q.** And the GI50 [18]?
**A.** > 10 µM (inactive)

**Q.** What about the GI50 [19] of the same molecule?
**A.** > 10 µM (inactive)

**Q.** What about the GI50 [22] of the same molecule?
**A.** > 10 µM (inactive)

**Q.** What about the GI50 [46] of the same molecule?
**A.** > 10 µM (inactive)

**Q.** What about the GI50 [23] of the same molecule?
**A.** > 10 µM (inactive)

**Q.** And the GI50 [24]?
**A.** > 10 µM (inactive)

**Q.** What about the GI50 [47] of the same molecule?
**A.** > 10 µM (inactive)

**Q.** What about the GI50 [25] of the same molecule?
**A.** > 10 µM (inactive)

**Q.** What about the GI50 [48] of the same molecule?
**A.** > 10 µM (inactive)

**Q.** And the GI50 [30]?
**A.** > 10 µM (inactive)

**Q.** What about the GI50 [32] of the same molecule?
**A.** > 10 µM (inactive)

**Q.** What about the GI50 [33] of the same molecule?
**A.** > 10 µM (inactive)

**Q.** What about the GI50 [34] of the same molecule?
**A.** > 10 µM (inactive)

**Q.** And the GI50 [35]?
**A.** > 10 µM (inactive)

**Q.** What about the GI50 [36] of the same molecule?
**A.** > 10 µM (inactive)

**Q.** And the GI50 [37]?
**A.** > 10 µM (inactive)

**Q.** What about the GI50 [40] of the same molecule?
**A.** > 10 µM (inactive)

**Q.** And the GI50 [41]?
**A.** > 10 µM (inactive)

**Q.** What about the GI50 [49] of the same molecule?
**A.** > 10 µM (inactive)
